Results as given in patent US6878699B1, “Taccalonolide microtubule stabilizing agents” (University of Hawaii, priority 1999, dated 2005).

Assays:
[1] = test system: SKVLB-1 cell line (sub-line of SK-OV-3 selected for resistance to vinblastine, P-glycoprotein-overexpressing); conditions: SK-OV-3 versus SKVLB-1; Mooberry et al. 1999, Smith et al. 1994; cited from earlier work
[2] = test system: SKVLB-1 cell line (sub-line of SK-OV-3 selected for resistance to vinblastine, P-glycoprotein-overexpressing)
Method: (§1) A-10 rat aortic smooth muscle cells, SK-OV-3 human ovarian carcinoma cell line and HeLa cells were obtained from the American Type Culture Collection (Manassas, Va.) and were cultured in BME containing 10% FBS and 50 μg/1 mL gentamycin sulfate. […] The A-10, HeLa, SK-OV-3, and SKVBL-1 cells were grown in Basal Medium Eagle containing Earle's salts, 50 μg/ml gentamycin, and 10% fetal bovine sorum (Hyclone, Logan Utah). Vinblastine was added to a final concentration of 1 μg/mL to SKVLB-1 cells 24 hours after passage to maintain selection pressure for P-glycoprotein-overexpressing cells.
(§2) The IC50 for inhibition of cell proliferation was determined by measuring cell-associated protein after drug treatment using the sulforhodamine B assay (see, for example, J. Natl. Cancer Inst. 82:1107-1112 (1990) and Drug Development Res. 34:91-109 (1995)).
(§3) The IC50 for each cell line was calculated from the dose response curves. The resistance factor was calculated by dividing the IC50 of the drug sensitive cell line by the IC50 of the drug resistant cell line. The values represent the mean of 3 or 4 experiments ± the SD.

[3] = test system: MDA-MB-435 human mammary adenocarcinoma cell line; test: Inhibition of cell proliferation, sulforhodamine B (SRB) assay; conditions: read-out: IC50 inhibition of proliferation, MDA-MB-435, 48 hr treatment, mean of 3 or 4 experiments ± SD
Method: as §1, §2, §3

[4] = test system: SK-OV-3 human ovarian carcinoma cell line; test: as above; type: cell-based; conditions: 48 hr treatment, mean of 3 or 4 experiments ± SD
Method: as §1, §2, §3

[5] = test system: A-10 rat aortic smooth muscle cells; test: Indirect immunofluorescence of microtubules, mitotic spindles and nuclei; conditions: low concentration 0.5 μM; cell line not specified (A-10 or HeLa)
Method: A-10 cells were grown to 70-85% confluency on glass coverslips in BME/10% FBS. Drug compounds in PBS were added to the indicated final concentrations and cells were incubated for an additional 24 hours. For the staining of microtubules and intermediate filaments, the cells were fixed with cold methanol for 5 minutes, blocked for 20 minutes with PBS containing 10% calf serum to block nonspecific binding sites, and incubated at 37° C. for 60-90 min with monoclonal anti-β-tubulin at the dilutions recommended by the manufacturer. Bound primary antibodies were subsequently visualized by a one hour incubation with fluorescein (FITC)-conjugated sheep antimouse IgG (F-3008; Sigma). The coverslips were washed, stained with 0.1 μg/mL DAPI for 10 minutes, mounted on microscope slides and the fluorescence patterns were examined and photographed using a Zeiss Axioplan microscope equipped with epifluorescence optics for fluorescein and DAPI.

[6] = test system: purified glycerol-free bovine brain tubulin; test: Assembly of purified tubulin (turbidity); type: biochemical; conditions: for Potency in tubulin polymerization relative to Taxol/paclitaxel: compared with 2 μM paclitaxel
Method: The assembly of purified tubulin was monitored spectrophotometrically by the change in absorbance at 340 nm. Purified glycerol-free bovine brain tubulin (TL-238, Cytoskeleton, Denver, Colo.) was solubilized in ice cold G-PEM buffer (80 mM PIPES, pH 6.9, 1 mM MgCl2, 1 mM EGTA and 1 mM GTP) and taccalonolide, Taxol or vehicle control was added and mixed well. The final concentration of tubulin was 1 mg/ml and ethanol concentration was 1% or less. An aliquot of the mixture was transferred to a room temperature 96 well plate and tubulin polymerization monitored for 60 min. at 35° C. in a temperature controlled microplate spectrophotometer.

[7] = test system: SKVLB-1 cell line (sub-line of SK-OV-3 selected for resistance to vinblastine, P-glycoprotein-overexpressing); test: Inhibition of cell proliferation, SRB assay, multidrug-resistant line
Method: as §1, §2, §3

[8] = test system: Bc1-2 and caspase 3; conditions: 18 and 24 hrs following treatment
Method: Following drug exposure the cells were harvested and cellular proteins extracted in radioimmunoprecipitation buffer in the presence of protease inhibitors as described previously (see Mooberry et al., Supra). The protein concentrations of the samples were determined (Pierce Reagent, Rockford, Ill.) and cell lysate aliquots containing equal concentrations of protein were separated, transferred, probed with specific antibodies, and detected as previously described (see Mooberry et al., in Cancer Res. 59:653-660 (1999)). The Bc1-2 and caspase 3 antibodies were purchased from PharMingin (San Diego, Calif.).

Q: With `COc1ccc(C[C@H]2NC(=O)/C=C/C[C@@H]([C@H](C)[C@H]3O[C@@H]3c3ccccc3)OC(=O)[C@H](CC(C)C)OC(=O)[C@H](C)CNC2=O)cc1Cl` [cryptophycin 1] as the compound, how does the “Resistance factor (literature)” value [1] read?
A: 1.1

Q: With `CC(=O)O[C@H]1C(=O)[C@@]2(C)[C@H]([C@H](OC(=O)c3ccccc3)[C@]3(O)C[C@H](OC(=O)[C@H](O)[C@@H](NC(=O)c4ccccc4)c4ccccc4)C(C)=C1C3(C)C)[C@]1(OC(C)=O)CO[C@@H]1C[C@@H]2O` [Paclitaxel] as the compound, how does the “Resistance factor (literature)” value [1] read?
A: greater than 58,000

Q: What about the inhibition [2] of the same compound?
A: ≤ 70%

Q: With taccalonolide A as the compound, how does the IC50 [3] read?
A: 2100 nM

Q: And the IC50 [4]?
A: 2300 nM

Q: What about the “First observable cellular change in dose-response study” value [5] of the same compound?
A: abnormal coordination of the DNA in the metaphase plate during mitosis

Q: What about the “Effect on polymerization of purified tubulin” value ([6]; 2 μM and 200 μM, 35° C., 60 min) of the same compound?
A: stimulated the polymerization of tubulin

Q: And the “Potency in tubulin polymerization relative to Taxol/paclitaxel” value ([6]; listed as Taccalonolide)?
A: much less potent than Taxol

Q: What about the “Potency in tubulin polymerization relative to Taxol/paclitaxel” value ([6]; listed as taccalonolide) of the same compound?
A: much less potent than paclitaxel

Q: What about the “Inhibition of proliferation of SKVLB-1 (in words)” value ([7]; P-glycoprotein overexpressing line) of the same compound?
A: completely inhibit the proliferation

Q: And the Resistance factor ([7]; SK-OV-3 (drug-sensitive) versus SKVLB-1 (drug resistant) IC50)?
A: 285

Q: What about the “Substrate for P-glycoprotein mediated drug transport” value ([7]; inferred from resistance factor SK-OV-3/SKVLB-1) of the same compound?
A: poor substrate

Q: And the IC50 ([7]; read-out: IC50 inhibition of proliferation, SKVLB-1, 48 hr treatment, SRB assay, multidrug-resistant line, mean of 3 or 4 experiments ± SD)?
A: 656 ± 42 µM

Q: What about the “p17 subunit of activated caspase 3 by immunoblot” value [8] of the same compound?
A: detected

Q: For `C=C1C[C@H](C)C[C@@H]2CC=C[C@@H](C/C=C\C(=O)O[C@H]([C@@H](O)/C=C/[C@@H]3CC(C)=CCO3)C[C@@H]3O[C@H]3[C@@H](O)C1)O2` [laulimalide], which “Resistance factor (literature)” value [1] is on record?
A: 105
